Literature values as cited in patent publication US20080286202A1, “Method of Diagnosing Prodromal Forms of Diseases Associated With Amyloid Deposition” (priority 2004, published 2008).

Details: in vivo

- f1 (free level in plasma): 0.06
Compound: COc1ccccc1N1CCN(CCN(c2ccccn2)[11C](=O)C2CCCCC2)CC1 [[^11C]WAY-100635]
